Laboratory results taken from US20230241017A1, “Hydrophilic Degradable Microsphere for Delivering Travoprost” (Occlugel, priority 2020, published 2023).
Marks after values point to notes of the source that are not given here.

What was measured:
[1] = In vitro release of travoprost in PBS after extemporaneous loading; format: physicochemical; settings: from MS5 after extemporaneous loading; PBS 37 °C (FIG. 7)
Experimental: Then, PBS (50 mL) was added to the microspheres loaded with travoprost for the in vitro drug release experiment (37° C., 150 rpm). The medium was completely renewed after each sample collection. The amounts of travoprost in PBS supernatants were determined by RP-HPLC at 222 nm on a C18 column (46×150 mm) using a mobile phase made of acetonitrile/water containing 0.1% TFA (60:40, v/v) at a flow rate of 1 mL/min in the isocratic mode at 25° C.

[2] = Extemporaneous loading of latanoprost and latanoprostene BUNOD on sterile MS5; format: physicochemical; settings: for Drug loading on MS5: extemporaneous loading on freeze-dried e-beam sterilized MS5, 5 min room temperature; for loading efficiencies (%) on MS5: extemporaneous loading on sterile MS5, 5 min room temperature
Experimental: After the sieving step of MS5, 100 μL or 250 μL of pellets were suspended in 5 mL of a solution containing 2.5% (w/v) of mannitol. After homogenization, the pellets of microspheres were recovered, frozen-dried and sterilized by e-beam radiation (25 kilograys).
Latanoprost Loading To the dry and sterile pellets of microspheres (250 μL), 500 μL of latanoprost solution (TRC-L177280-10MG) at 2 mg/mL in acetonitrile/water mixture (70/30) were added. After 5 min of mixing at room temperature under stirring on a tube rotator (=30 rpm), the supernatants were removed for the measurement of unbound latanoprost by RP-HPLC at 210 nm on a C18 column (46×150 mm) using a mobile phase made of acetonitrile/water containing 0.1% TFA (60:40, v/v) at a flow rate of 1 mL/min in the isocratic mode at 25° C. The amount of latanoprost in supernatants was obtained by extrapolation from a standard curve (0.5 to 20 μg/mL). The loaded dose was calculated by subtracting the final amount of latanoprost from the initial amount. The latanoprost loading for 1 mL of beads was obtained by multiplying by 4 the quantity loaded on 250 μL of MS.
Latanoprostene BUNOD is a nitric oxide (NO)-donating prostaglandin F2a analogue approved for the reduction of intraocular pressure in patients with open-angle glaucoma or ocular hypertension. To the dry and sterile pellets of microspheres (100 μL), 700 μL of latanoprotene BUNOD (TRC-L177335-2.5MG) solution at 1 mg/mL in acetonitrile/water mixture (70/30%) were added. After 5 min of mixing at room temperature under stirring on a tube rotator (=30 rpm), the supernatants were removed for the measurement of unbound drug by RP-HPLC at 210 nm on a C18 column (46×150 mm) using a mobile phase made of acetonitrile/water containing 0.1% TFA (60:40, v/v) at a flow rate of 1 mL/min in the isocratic mode at 25° C. The amount of latanoprotene BUNOD in supernatants was obtained by extrapolation from a standard curve (0.25 to 25 μg/mL). The loaded dose was calculated by subtracting the final amount of latanoprotene BUNOD from the initial amount. The latanoprotene BUNOD loading for 1 mL of beads was obtained by multiplying by 10 the quantity loaded on 100 μL of MS.

[3] = In vitro release of latanoprost and latanoprostene BUNOD in PBS after extemporaneous loading on MS5; format: physicochemical; settings: for elution after 5 weeks of incubation: loaded on MS5, PBS 37 °C (FIG. 9); for % of prostaglandin analogues release after 10 min in PBS / % of prostaglandin analogues release after 1 day in PBS / % of prostaglandin analogues release after 7 days in PBS / % of prostaglandin analogues release after 18 days in PBS: loaded on sterile MS5, PBS pH 7.4, 37 °C
Experimental: Then, immediately after the loading step, 50 mL of PBS (Sigma P-5368; 10 mM phosphate buffered saline; NaCl 0,136 M; KCl 0,0027 M; pH 7.4) was added to the microspheres loaded with latanoprost or latanoprostene BUNOD for the in vitro drug release (37° C., 150 rpm). The medium was completely renewed after each sample collection (10 min, 2 h, 24 h and every 3-4 days during 5 weeks). The amounts of prostaglandin analogues in PBS supernatants were determined by RP-HPLC at 210 nm for latanoprost and latanoprostene BUNOD on a C18 column (46×150 mm) using a mobile phase made of acetonitrile/water containing 0.1% TFA (60:40, v/v) at a flow rate of 1 mL/min in the isocratic mode at 25° C. The results are summarized in Table 7 and in FIG. 9 for each drug.

[4] = pubchem.ncbi.nlm.nih.gov; cited from earlier work

CC(C)OC(=O)CCC/C=C\C[C@@H]1[C@@H](/C=C/[C@@H](O)COc2cccc(C(F)(F)F)c2)[C@H](O)C[C@@H]1O [travoprost]
duration of sustained travoprost release [1]: at least two months | initial burst release of travoprost [1]: 3.5%

CC(C)OC(=O)CCC/C=C\C[C@@H]1[C@@H](CC[C@@H](O)CCc2ccccc2)[C@H](O)C[C@@H]1O [Latanoprost]
Drug loading on MS5 [2]: 3.83 ± 0.07 mg/mL | loading efficiencies (%) on MS5 [2]: (98%)** | elution after 5 weeks of incubation [3]: practically complete | % of prostaglandin analogues release after 10 min in PBS [3]: 8.7 ± 0.5% | % of prostaglandin analogues release after 1 day in PBS [3]: 42.3 ± 10% | % of prostaglandin analogues release after 7 days in PBS [3]: 59.7 ± 11.1% | % of prostaglandin analogues release after 18 days in PBS [3]: 77.5 ± 11.9%

O=C(CCC/C=C\C[C@@H]1[C@@H](CC[C@@H](O)CCc2ccccc2)[C@H](O)C[C@@H]1O)OCCCCO[N+](=O)[O-] [Latanoprostene BUNOD]
Drug loading on MS5 [2]: 6.58 ± 0.1 mg/mL | amount of drug loaded on the degradable microsphere MS5 ([2]; extemporaneous loading on sterile MS5): at least 6.5 mg | loading efficiencies (%) on MS5 [2]: (94%) | elution after 5 weeks of incubation [3]: practically complete | % of prostaglandin analogues release after 10 min in PBS [3]: 7.04 ± 2.2% | % of prostaglandin analogues release after 1 day in PBS [3]: 32.4 ± 4.1% | % of prostaglandin analogues release after 7 days in PBS [3]: 45.2 ± 4.5% | % of prostaglandin analogues release after 18 days in PBS [3]: 60 ± 6.2% | Partition coefficient P (Log P) of the prostaglandin analogues [4]: 3.79-3.94
